What follows are compounds tested against T1, hFXR (Homo sapiens, UniProt Q96RI1) (assay: In Vitro FXR Assay (TK): TK-ECRE-luc reporter in transfected CV-1 cells). Conditions: 18 hrs incubation, luminescence.
T1 construct: expressed in transfected cells; host or cells: CV-1 cells
T1 sequence (Q96RI1 1-486): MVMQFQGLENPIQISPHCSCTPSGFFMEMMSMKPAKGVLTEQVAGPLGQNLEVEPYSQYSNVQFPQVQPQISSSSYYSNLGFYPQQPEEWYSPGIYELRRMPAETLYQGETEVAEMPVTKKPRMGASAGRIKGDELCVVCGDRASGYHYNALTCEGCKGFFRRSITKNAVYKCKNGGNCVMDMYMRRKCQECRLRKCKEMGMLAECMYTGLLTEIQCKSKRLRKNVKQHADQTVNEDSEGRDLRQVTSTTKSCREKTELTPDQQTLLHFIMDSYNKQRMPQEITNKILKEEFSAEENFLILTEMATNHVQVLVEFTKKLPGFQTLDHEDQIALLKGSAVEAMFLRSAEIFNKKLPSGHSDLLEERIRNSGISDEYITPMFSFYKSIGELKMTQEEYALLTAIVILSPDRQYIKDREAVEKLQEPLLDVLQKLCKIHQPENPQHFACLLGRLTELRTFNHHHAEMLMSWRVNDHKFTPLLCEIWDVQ
T1 sequence (P19793 1-462 partner): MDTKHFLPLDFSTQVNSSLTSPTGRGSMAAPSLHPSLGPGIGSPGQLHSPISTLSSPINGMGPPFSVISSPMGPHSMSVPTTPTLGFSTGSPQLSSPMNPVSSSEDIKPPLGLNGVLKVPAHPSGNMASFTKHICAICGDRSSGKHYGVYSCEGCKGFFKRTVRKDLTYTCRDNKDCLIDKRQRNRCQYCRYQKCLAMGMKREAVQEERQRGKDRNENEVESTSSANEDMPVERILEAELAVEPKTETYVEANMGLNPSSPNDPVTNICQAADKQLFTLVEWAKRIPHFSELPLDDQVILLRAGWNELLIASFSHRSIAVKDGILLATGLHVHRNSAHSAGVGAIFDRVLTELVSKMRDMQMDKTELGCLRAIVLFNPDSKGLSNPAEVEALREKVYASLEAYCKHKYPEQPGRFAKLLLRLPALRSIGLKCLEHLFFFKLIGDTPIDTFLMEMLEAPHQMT
Format: cell-based
Description: Example B-1: In Vitro FXR Assay (TK)
CV-1 cells were seeded at a density of 2,000,000 cells in a T175 flask with DMEM+10% charcoal double-stripped FBS and incubated at 37° C. in 5% CO2 for 18 h (O/N).
After 18 h of incubation, the medium in the T175 flask was changed with fresh DMEM+10% charcoal super-stripped serum. In a polypropylene tube, 2500 μL OptiMEM (Life Technologies, Cat #31985-062) was combined with expression plasmids for hFXR, hRXR, TK-ECRE-luc and pCMX-YFP. The tube was then briefly vortexed and incubated at room temperature for 5 minutes. Transfection reagent (X-tremeGENE HP from Roche, Cat #06 366 236 001) was added to the OptiMEM/plasmid mixture vortexed and incubated at room temperature for 20 minutes. Following incubation, the transfection reagent/DNA mixture complex was added to cells in the T175 flask and the cells were incubated at 37° C. in 5% CO2 for 18 h (O/N).
Compounds were serially diluted in DMSO and added to transfected CV-1 cells. The cells were then incubated for 18 hrs. The next day cells were lysed and examined for luminescence.

**Q.** How did the EC50 turn out when `COc1ccc(C23CCC(CN(c4cc(-c5cnn(C(C)C)c5)ccn4)C(=O)[C@H]4CC[C@H](OC(=O)N5CC(N(C)C)C5)CC4)(CC2)CC3)cc1C` [Compound 4.12, 4-((4-(1-Isopropyl-1H-pyrazol-4-yl)pyridin-2-yl)((4-(4-methoxy-3-methylphenyl)bicyclo [2.2.2]octan-1-yl)methyl)carbamoyl)cyclohexyl 3-(dimethylamino) azetidine-trans-1-carboxylate] was run?
**A.** ≤ 50 nM

**Q.** With `COc1ccc(C23CCC(CN(c4ncc(F)c(-c5cnn(C(C)C)c5)c4F)C(=O)[C@H]4CC[C@H](OC(=O)N5CC(O)C5)CC4)(CC2)CC3)cc1C` [Compound 25.14, 4-((3,5-Difluoro-4-(1-isopropyl-1H-pyrazol-4-yl)pyridin-2-yl)((4-(4-methoxy-3-methylphenyl)bicyclo[2.2.2]octan-1-yl)methyl)carbamoyl)(trans-cyclohexyl) 3-hydroxyazetidine-1-carboxylate] as the compound, how does the EC50 read?
**A.** ≤ 50 nM

**Q.** With `COc1ccc(C23CCC(CN(c4cc(-c5cnn(C6(C)CCC6)c5)ccn4)C(=O)[C@H]4CC[C@H](OC(=O)N5CC(S(C)(=O)=O)C5)CC4)(CC2)CC3)cc1C` [Compound 25.19, 4-(((4-(4-Methoxy-3-methylphenyl)bicyclo[2.2.2]octan-1-yl)methyl)(4-(1-(1-methylcyclobutyl)-1H-pyrazol-4-yl)pyridin-2-yl)carbamoyl)(trans-cyclohexyl) 3-(methylsulfonyl)azetidine-1-carboxylate] as the compound, how does the EC50 read?
**A.** ≤ 50 nM

**Q.** `CCOc1ncc(-c2ccnc(N(C[C@H]3CC[C@H](c4ccc(OC)c(C)c4)CC3)C(=O)[C@H]3CC[C@H](OC(=O)N4CC(O)C4)CC3)c2)s1` [Compound 2.43, trans-4-((4-(2-Ethoxythiazol-5-yl)pyridin-2-yl)((trans-4-(4-methoxy-3-methylphenyl)cyclohexyl)methyl)carbamoyl)cyclohexyl 3-hydroxyazetidine-1-carboxylate] was tested. Which EC50 did it give?
**A.** ≤ 50 nM

**Q.** For `COc1ccc(C23CCC(CN(c4cc(-c5cc(C(C)C)on5)ccn4)C(=O)[C@H]4CC[C@H](OC(=O)N5CC(O)C5)CC4)(CC2)CC3)cc1C` [Compound 4.27, 4-((4-(5-Isopropylisoxazol-3-yl)pyridin-2-yl)((4-(4-methoxy-3-methylphenyl)bicyclo[2.2.2]octan-1-yl)methyl)carbamoyl) cyclohexyl 3-hydroxyazetidine-trans-1-carboxylate], which EC50 is on record?
**A.** ≤ 50 nM

**Q.** With `COC(=O)N[C@H]1CC[C@H](C(=O)N(C[C@H]2CC[C@H](c3ccc(OC)c(C)c3)CC2)c2cccc(-c3cnn(C(C)C)c3)c2)CC1` [Compound 6, Methyl (trans-4-((3-(1-isopropyl-1H-pyrazol-4-yl)phenyl)((trans-4-(4-methoxy-3-methylphenyl)cyclohexyl)methyl)carbamoyl)cyclohexyl)carbamate] as the compound, how does the EC50 read?
**A.** ≤ 50 nM

**Q.** Which EC50 does the source give for `COc1ccc(C23CCC(CN(c4cc(-c5cnc(C6CC6)s5)ccn4)C(=O)[C@H]4CC[C@H](OC(=O)N5CC(CO)C5)CC4)(CC2)CC3)cc1C` [Compound 4.28, 4-((4-(2-Cyclopropylthiazol-5-yl)pyridin-2-yl)((4-(4-methoxy-3-methylphenyl)bicyclo[2.2.2]octan-1-yl)methyl)carbamoyl)(trans-cyclohexyl) 3-(hydroxymethyl)azetidine-1-carboxylate] here?
**A.** ≤ 50 nM

**Q.** How did the EC50 turn out when `COc1ccc([C@H]2CC[C@H](CN(c3cc(-c4cnn(C(C)C)c4)ccn3)C(=O)[C@H]3CC[C@H](OC(=O)NC[C@H](F)CO)CC3)CC2)cc1C` [Compound 2.30, trans-4-((4-(1-Isopropyl-1H-pyrazol-4-yl)pyridin-2-yl)(((trans)-4-(4-methoxy-3-methylphenyl)cyclohexyl)methyl)carbamoyl) cyclohexyl((S)-2-fluoro-3-hydroxypropyl)carbamate] was run?
**A.** ≤ 50 nM

**Q.** Which EC50 does the source give for `COc1ccc(C23CCC(CN(c4cc(-c5cnn(C(C)C)c5)ccn4)C(=O)[C@H]4CC[C@H](OC(=O)N5CC(OC(C)C)C5)CC4)(CC2)CC3)cc1C` [Compound 23.11, 4-((4-(1-Isopropyl-1H-pyrazol-4-yl)pyridin-2-yl)((4-(4-methoxy-3-methylphenyl)bicyclo[2.2.2]octan-1-yl)methyl)carbamoyl)(trans-cyclohexyl) 3-isopropoxy-azetidine-1-carboxylate] here?
**A.** ≤ 50 nM

**Q.** For `COc1ccc([C@H]2CC[C@H](CN(c3cc(-c4coc(C5CC5)n4)ccn3)C(=O)[C@H]3CC[C@H](OC(=O)N4CCN(C)CC4)CC3)CC2)cc1Cl` [Compound 2.07, trans-4-(((trans-4-(3-Chloro-4-methoxyphenyl)cyclohexyl)methyl)(4-(2-cyclopropyloxazol-4-yl)pyridin-2-yl)carbamoyl)cyclohexyl 4-methylpiperazine-1-carboxylate], which EC50 is on record?
**A.** ≤ 50 nM

**Q.** With `COc1ccc(C23CCC(CN(c4cc(-c5cnn(C(C)C)c5)ccn4)C(=O)[C@H]4CC[C@H](OC(=O)N5CC(CCO)C5)CC4)(CC2)CC3)cc1C` [Compound 4.43, 4-((4-(1-Isopropyl-1H-pyrazol-4-yl)pyridin-2-yl) ((4-(4-methoxy-3-methylphenyl)bicyclo [2.2.2]octan-1-yl)methyl)carbamoyl)cyclohexyl trans-3-(2-hydroxyethyl) azetidine-1-carboxylate] as the compound, how does the EC50 read?
**A.** ≤ 50 nM

**Q.** For `COc1ccc([C@H]2CC[C@H](CN(c3cc(-c4cnn(C(C)C)c4)ccn3)C(=O)[C@H]3CC[C@H](OC(=O)N4CC(OCCO)C4)CC3)CC2)cc1C` [Compound 2.11, trans-4-((4-(1-Isopropyl-1H-pyrazol-4-yl)pyridin-2-yl)(((trans)-4-(4-methoxy-3-methylphenyl)cyclohexyl)methyl)carbamoyl) cyclohexyl3-(2-hydroxyethoxy)azetidine-1-carboxylate], which EC50 is on record?
**A.** ≤ 50 nM

**Q.** Which EC50 does the source give for `COc1c(C)cc(C23CCC(CN(c4cc(-c5cnn(C(C)C)c5)ccn4)C(=O)[C@H]4CC[C@H](OC(=O)N5CC(O)C5)CC4)(CC2)CC3)cc1F` [Compound 26.05, 4-(((4-(3-Fluoro-4-methoxy-5-methylphenyl)bicyclo[2.2.2]octan-1-yl)methyl)(4-(1-isopropyl-1H-pyrazol-4-yl)pyridin-2-yl)carbamoyl)cyclohexyl trans-3-hydroxyazetidine-1-carboxylate] here?
**A.** ≤ 50 nM

**Q.** With `COc1ccc(C23CCC(CN(c4cc(-c5cnn(C(C)C)c5)ncn4)C(=O)[C@H]4CC[C@H](OC(=O)N5CC(CO)C5)CC4)(CC2)CC3)cc1C` [Compound 23.20, 4-((6-(1-Isopropyl-1H-pyrazol-4-yl)pyrimidin-4-yl)((4-(4-methoxy-3-methylphenyl)bi-cyclo[2.2.2]octan-1-yl)methyl)carbamoyl)(trans-cyclohexyl) 3-(hydroxymethyl)azetidine-1-carboxylate] as the compound, how does the EC50 read?
**A.** ≤ 50 nM

**Q.** `COc1ccc(C23CCC(CN(c4cc(-c5cnn(C(C)C)c5)c(F)cn4)C(=O)[C@H]4CC[C@H](OC(=O)NCCCO)CC4)(CC2)CC3)cc1C` [Compound 25.05, 4-((5-Fluoro-4-(1-isopropyl-1H-pyrazol-4-yl)pyridin-2-yl)((4-(4-methoxy-3-methylphenyl)bicyclo[2.2.2]octan-1-yl)methyl)carbamoyl)cyclohexyl trans-(3-hydroxypropyl)carbamate] was tested. Which EC50 did it give?
**A.** ≤ 50 nM

**Q.** `COc1ccc([C@H]2CC[C@H](CN(c3cccc(-c4cnn(C(C)C)c4)c3)C(=O)[C@H]3CC[C@H](NC(=O)OC4CCN(C)CC4)CC3)CC2)cc1C` [Compound 6.08, 1-Methylpiperidin-4-yl (trans-4-((3-(1-isopropyl-1H-pyrazol-4-yl)phenyl)((trans-4-(4-methoxy-3-methylphenyl)cyclohexyl)meth-yl)carbamoyl)cyclohexyl)carbamate] was tested. Which EC50 did it give?
**A.** 50 to 1000 nM

**Q.** How did the EC50 turn out when `COc1ccc([C@H]2CC[C@H](CN(c3cc(-c4cnn(C(C)C)c4)ccn3)C(=O)[C@H]3CC[C@H](OC(=O)NCC(C)(C)O)CC3)CC2)cc1C` [Compound 2.04, trans-4-((4-(1-Isopropyl-1H-pyrazol-4-yl)pyridin-2-yl) ((trans-4-(4-methoxy-3-methylphenyl)cyclohexyl)methyl)carbamoyl) cyclohexyl(2-hydroxy-2-methylpropyl)carbamate] was run?
**A.** ≤ 50 nM
